Article PMC9951290, “Comprehensive Structure–Activity Relationship Studies of Cepafungin Enabled by Biocatalytic C–H Oxidations” (ACS Central Science, 2023)

What was measured:
[1] = system: β5-subunit; conditions: purified yeast proteasome; cited from earlier work
[2] = biological target: T1, proteasome subunit β2 (Homo sapiens, UniProt Q99436); assay: In situ β2 proteasome activity assay (Ac-RLR-AMC) in RPMI 8226 cells; assay type: cell-based; conditions: 6 h, n = 3, Figure 4D
T1 sequence (Q99436 44-277): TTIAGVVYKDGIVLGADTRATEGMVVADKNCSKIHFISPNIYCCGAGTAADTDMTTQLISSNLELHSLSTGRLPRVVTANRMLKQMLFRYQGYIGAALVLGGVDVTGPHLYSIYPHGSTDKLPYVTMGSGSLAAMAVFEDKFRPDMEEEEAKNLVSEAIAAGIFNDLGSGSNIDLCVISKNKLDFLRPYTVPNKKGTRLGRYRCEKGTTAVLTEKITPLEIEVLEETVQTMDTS
Experimental: Cellular assays were performed on human multiple myeloma RPMI 8226 cells (Figure 4). First, relative inhibition of proteasome subunits β5 and β2 for all analogues and the natural product was measured at 30 nM compound concentration. Following incubation of the compounds in cell culture for 6 h, cells were lysed, and fluorogenic subunit-specific peptide substrates Suc-LLVY-AMC (β5) or Ac-RLR-AMC (β2) were incubated with the lysates; fluorescence readings provided relative proteasome activity levels in comparison with DMSO (Figure 4A). Next, cytotoxicity screening was performed at 30 and 100 nM concentrations for sufficient coverage of dynamic range (Figure 4B). […] Therefore, the improved cytotoxicity of phenyl cepafungin 50 likely results from a more pronounced loss of β5 function in RPMI 8226 cells. This drastic increase in proteasome inhibition may be due to π-stacking of the lipid tail phenyl ring with the β6 subunit residues Tyr106 and/or Tyr5. […]
Mammalian cells were maintained in RPMI-1640 media. […] Cells were lysed by needle sonication to obtain cell lysates and protein concentration was determined using the […]
fluorescence was read at A360ex/A460em. […]
in DMSO) or DMSO and cultured for 48 hours. Toxicity was determined using the WST-1 assay (Roche) according to the protocol of the manufacturer. […]

For CC(C)CCCCCC=CC=CC(=O)NC(C(=O)NC1CC(O)CCNC(=O)C=CC(C)NC1=O)C(C)O (centres unmarked) [compound 1, cepafungin I], the “fold improvement of β5-subunit inhibition compared to glidobactin A (2)” value [1] is listed as “ca. 5 fold” and the IC50 [2] is listed as 43 nM.
